Broadly, the IC50 is the concentration that inhibits the measured activity by half.

This assay deals with T1, receptors in rat pancreas (3H-CCK-8-(SO3 H) binding) (Rattus norvegicus, UniProt P30551).
T1 construct: receptors in homogenized preparations of rat pancreatic cells and bovine striata; from tissue; host or cells: rat pancreas homogenate (48,000 x g pellet)
T1 sequence (P30551 1-444): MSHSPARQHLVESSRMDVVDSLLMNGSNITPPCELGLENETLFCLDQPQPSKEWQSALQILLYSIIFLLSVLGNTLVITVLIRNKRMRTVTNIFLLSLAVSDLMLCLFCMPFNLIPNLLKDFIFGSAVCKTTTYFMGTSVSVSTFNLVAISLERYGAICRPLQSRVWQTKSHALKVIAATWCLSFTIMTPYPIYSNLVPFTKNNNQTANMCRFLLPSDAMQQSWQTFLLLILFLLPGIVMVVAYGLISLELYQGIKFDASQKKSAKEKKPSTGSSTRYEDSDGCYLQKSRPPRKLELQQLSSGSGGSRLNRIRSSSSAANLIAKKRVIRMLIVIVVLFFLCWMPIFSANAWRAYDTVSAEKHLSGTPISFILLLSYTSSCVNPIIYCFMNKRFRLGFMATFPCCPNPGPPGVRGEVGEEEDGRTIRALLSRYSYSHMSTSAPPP
The experiment in a line: In vitro receptor binding assay, rat pancreas homogenate, 3H-CCK-8-(SO3H) radioligand. Conditions: 0.15 nM radioligand, 30 min, 25° C.; read-out: Rat Pancreas IC50 (inhibition of specific 3H-CCK-8-(SO3H) binding). As for the experimental part: This strategy was utilized to minimize central nervous system side effects by identifying peptides with peripheral receptor selectivity. […] The tissue was homogenized 2 x for approx. 15 sec. at 0° C. using a Polytron homogenizer at a setting of 6. The tissue was isolated by centrifugation at 48,000 x g for 10 min. at 0° C. […] Samples were incubated for 30 min. at 25° C. and the incubation terminated by pouring the mixture onto a pre-wet Whatman GF/B filter on a Sandbeck Vacuum Filtration Manifold. The incubation tubes were washed with 2×3 ml of ice-cold HEPES Buffer #2 and the wash filtered through the GF/B filter. The filter was air dried for 10 min. and then placed in a scintillation vial with 12 ml of Beckman HP/b Ready-Solv scintillation cocktail. The vials were shaken for 2 hours and then counted using a Beckman Model 7800 liquid scintillation spectrometer.

The structures appear in SMILES notation. Where a SMILES comes first, the peptide text is derived from it. [ ]: non-standard residue; d: D form. Thr(SO3H) = C[C@@H](OS(=O)(=O)O)[C@H](N)C(=O)O; sY = N[C@@H](Cc1ccc(OS(=O)(=O)O)cc1)C(=O)O; NMeF = CN[C@@H](Cc1ccccc1)C(=O)O

`CSCC[C@H](NC(=O)[C@H](Cc1ccc(OS(=O)(=O)O)cc1)NC(C)=O)C(=O)NCC(=O)N[C@@H](Cc1c[nH]c2ccccc12)C(=O)N[C@@H](CCSC)C(=O)N[C@H](C(=O)N(C)[C@@H](Cc1ccccc1)C(N)=O)[C@@H](C)OS(=O)(=O)O` [Example 2, Ac-Tyr(SO3 H)-Met-Gly-Trp-Met-Thr(SO3 H)-N-methyl-Phe-NH2] (Ac-[sY]MGWM[Thr(SO3H)][NMeF]-NH2): the IC50 was 2.2 nM.
